Measured values as given in patent publication US20210085711A1 (Japan Tobacco Inc., priority 2017, published 2021).

Key:
[1] = tested on: patients with hypermenorrhea and/or patients with hypermenorrhea-associated gynecologic diseases (iron-deficiency anemia patients); experiment: Phase II clinical trial of JTT-751: mean corpuscular volume value (MCV); assay type: in vivo, human
Description: (§1) This test was a three-stage safety and efficacy clinical trial at multi-facilities. The first stage was a pre-observation period (Day −40 to Day −1), the second stage was an administration period (Day 1 to Day 48) (efficacy and safety evaluation period), and the third stage was a post-observation period (Day 49 to Day 63) (efficacy and safety evaluation period). The safety evaluation and efficacy evaluation were performed by multi-facility collaboration, placebo control, random allocation, double-blind trial, and parallel group comparison test.
(§2) (1) Japanese patients who are 20 or more and less than 65 years old at the time of agreement and can visit an outpatient clinic (2) Patients who have an Hb value (measured using HemoCue® Hb 201 DM analyzer in the institute of clinical practice) of 7.0 g/dL or more and less than 11.0 g/dL on both the observation start date and Week 0, and the difference between the two days is 1.0 g/dL or less (3) Patients with a TIBC of 360 μg/dL or more or a serum ferritin value of less than 12 ng/mL on the observation start date
(§3) The administration period of the trial drug is seven weeks which starts from the next day of the Week 0 visit to the day before the Week 7 visit, provided that the trial drug is not taken on the scheduled Week 3 visit.
(§4) (2) Subsidiary evaluation items 1) Erythrocyte-related examination values and amount of change from Week 0 at each observation date 2) Iron-related test values and amount of change from Week 0 at each observation date 3) Achievement rate of target Hb value (female; 12.0 g/dL or more, male; 13.0 g/dL or more) at each observation date 4) Achievement rate of 1.0 g/dL or more and achievement rate of 2.0 g/dL or more in Hb value improvement from Week 0 at each observation date 5) Average daily change of Hb value from Week 0 to each observation date
(§5) The blood hemoglobin value (Hb), the serum iron level, the serum ferritin value, the total iron-binding capacity (TIBC) and the transferrin saturation rate (TSAT), and the mean corpuscular volume (MCV) were each examined at the observation start date, Week 0, Week 3, Week 7, the end of administration and the consultation at nine weeks after Week 0; the hepcidin concentration (Hepcidin 25) and the serum soluble transferrin receptor concentration (sTfR) were each examined on Week 0, Week 3 and Week 7 and at the end of administration; and the C-terminal FGF23 value (cFGF23) and the intact FGF23 value (iFGF23) were each examined on Week 0 and Week 7 and at the end of administration.

[2] = tested on: patients with hypermenorrhea and/or patients with hypermenorrhea-associated gynecologic diseases (iron-deficiency anemia patients); experiment: Phase II clinical trial of JTT-751: hepcidin concentration (Hepcidin 25); assay type: in vivo, human
Description: as §1, §2, §3, §4, §5

[3] = 9 weeks after Week 0, JTT-751 250 mg group
[4] = 9 weeks after Week 0, JTT-751 500 mg group
[5] = 9 weeks after Week 0, JTT-751 1000 mg group
[6] = 9 weeks after Week 0, JTT-751 1500 mg group
[7] = Administration start date, JTT-751 250 mg group
[8] = Administration start date, JTT-751 500 mg group
[9] = Administration start date, JTT-751 1000 mg group
[10] = Administration start date, JTT-751 1500 mg group
[11] = End of administration, JTT-751 250 mg group
[12] = End of administration, JTT-751 500 mg group
[13] = End of administration, JTT-751 1000 mg group
[14] = End of administration, JTT-751 1500 mg group
[15] = Week 0 (baseline), JTT-751 250 mg group
[16] = Week 0 (baseline), JTT-751 500 mg group
[17] = Week 0 (baseline), JTT-751 1000 mg group
[18] = Week 0 (baseline), JTT-751 1500 mg group

## Ferric citrate [JTT-751]
[1]; [3]
  MCV, Mean: 78.9 fL
  MCV, Median: 79.0 fL
[1]; [4]
  MCV, Mean: 80.8 fL
  MCV, Median: 81.0 fL
[1]; [5]
  MCV, Mean: 83.9 fL
  MCV, Median: 84.0 fL
[1]; [6]
  MCV, Mean: 82.4 fL
  MCV, Median: 82.5 fL
[1]; [7]
  MCV, Mean: 71.5 fL
  MCV, Median: 73.0 fL
[1]; [8]
  MCV, Mean: 71.9 fL
  MCV, Median: 72.0 fL
[1]; [9]
  MCV, Mean: 72.5 fL
  MCV, Median: 71.0 fL
[1]; [10]
  MCV, Mean: 71.0 fL
  MCV, Median: 69.0 fL
[1]; [11]
  MCV, Mean: 78.4 fL
  MCV, Median: 79.5 fL
[1]; [12]
  MCV, Mean: 79.8 fL
  MCV, Median: 81.0 fL
[1]; [13]
  MCV, Mean: 82.5 fL
  MCV, Median: 82.0 fL
[1]; [14]
  MCV, Mean: 81.4 fL
  MCV, Median: 81.0 fL
[1]; [15]
  MCV, Mean: 70.8 fL
  MCV, Median: 72.0 fL
[1]; [16]
  MCV, Mean: 70.9 fL
  MCV, Median: 70.5 fL
[1]; [17]
  MCV, Mean: 72.4 fL
  MCV, Median: 70.0 fL
[1]; [18]
  MCV, Mean: 70.6 fL
  MCV, Median: 68.0 fL
[1]; Week 0, Week 3 and Week 7
  mean corpuscular volume value (MCV), time-dependent change: increased along with the continuous administration
[1]; Week 3, JTT-751 250 mg group
  MCV, Mean: 73.9 fL
  MCV, Median: 74.0 fL
[1]; Week 3, JTT-751 500 mg group
  MCV, Mean: 75.3 fL
  MCV, Median: 75.0 fL
[1]; Week 3, JTT-751 1000 mg group
  MCV, Mean: 78.3 fL
  MCV, Median: 77.0 fL
[1]; Week 3, JTT-751 1500 mg group
  MCV, Mean: 76.7 fL
  MCV, Median: 77.0 fL
[1]; Week 7, JTT-751 250 mg group
  MCV, Mean: 78.4 fL
  MCV, Median: 79.5 fL
[1]; Week 7, JTT-751 500 mg group
  MCV, Mean: 79.8 fL
  MCV, Median: 81.0 fL
[1]; Week 7, JTT-751 1000 mg group
  MCV, Mean: 82.5 fL
  MCV, Median: 82.0 fL
[1]; Week 7, JTT-751 1500 mg group
  MCV, Mean: 81.4 fL
  MCV, Median: 81.0 fL
[1]; end of administration
  mean corpuscular volume value (MCV) at the end of administration: a value around the normal value
[2]; [11]
  Hepcidin-25, Mean: 2.196 pg/mL
  Hepcidin-25, Median: 1.520 pg/mL
[2]; [12]
  Hepcidin-25, Mean: 4.818 pg/mL
  Hepcidin-25, Median: 3.925 pg/mL
[2]; [13]
  Hepcidin-25, Mean: 11.465 pg/mL
  Hepcidin-25, Median: 9.680 pg/mL
[2]; [14]
  Hepcidin-25, Mean: 11.674 pg/mL
  Hepcidin-25, Median: 8.440 pg/mL
[2]; [15]
  Hepcidin-25, Mean: 0.726 pg/mL
  Hepcidin-25, Median: 0.715 pg/mL
[2]; [16]
  Hepcidin-25, Mean: 0.593 pg/mL
  Hepcidin-25, Median: 0.290 pg/mL
[2]; [17]
  Hepcidin-25, Mean: 0.509 pg/mL
  Hepcidin-25, Median: 0.410 pg/mL
[2]; [18]
  Hepcidin-25, Mean: 0.631 pg/mL
  Hepcidin-25, Median: 0.600 pg/mL
[2]; Week 0, Week 3 and Week 7
  Hepcidin 25 concentration, time-dependent change: increased along with the continuous administration
[2]; Week 3, JTT-751 250 mg group
  Hepcidin-25, Mean: 1.289 pg/mL
  Hepcidin-25, Median: 0.695 pg/mL
[2]; Week 3, JTT-751 500 mg group
  Hepcidin-25, Mean: 1.839 pg/mL
  Hepcidin-25, Median: 0.895 pg/mL
[2]; Week 3, JTT-751 1000 mg group
  Hepcidin-25, Mean: 8.623 pg/mL
  Hepcidin-25, Median: 8.430 pg/mL
[2]; Week 3, JTT-751 1500 mg group
  Hepcidin-25, Mean: 7.813 pg/mL
  Hepcidin-25, Median: 5.940 pg/mL
[2]; Week 7, JTT-751 250 mg group
  Hepcidin-25, Mean: 2.196 pg/mL
  Hepcidin-25, Median: 1.520 pg/mL
[2]; Week 7, JTT-751 500 mg group
  Hepcidin-25, Mean: 4.818 pg/mL
  Hepcidin-25, Median: 3.925 pg/mL
[2]; Week 7, JTT-751 1000 mg group
  Hepcidin-25, Mean: 11.465 pg/mL
  Hepcidin-25, Median: 9.680 pg/mL
[2]; Week 7, JTT-751 1500 mg group
  Hepcidin-25, Mean: 11.674 pg/mL
  Hepcidin-25, Median: 8.440 pg/mL
